SMILES strings stand for the structures. Where two headings read alike, the source gives them in different places.

The target of assay [1] is human GABAA α5β2γ1 receptor (Homo sapiens (Human), UniProt P31644+Q8N1C3). The assay can be described thus: Radioligand binding assay, competition for [3H]RO7239181, γ1-containing GABAA subtypes.
Assay [2] concerns the target human GABAA α1β3γ2 receptor (Homo sapiens (Human), UniProt P14867+P18507). The assay is described as follows: Radioligand binding assay, competition for [3H]Flumazenil, γ2-containing GABAA subtypes. As to conditions: for γ2/γ1 Selectivity Ratio: Ki α1β3γ2 (nM)/Ki α2β2γ1 (nM); for LogSel: Log[Ki α1β3γ2 (nM)/Ki α2β2γ1 (nM)]. The essentials: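 Competition against [3H]Flumazenil binding in HEK293F cells transiently expressing human α1β3γ2 receptors, pellets resuspended in mannitol buffer pH 7,2-7,4. Incubated to equilibrium 1 hour at 4° C, filtered and washed with ice-cold 50 mM Tris pH 7.5, bound radioactivity by liquid scintillation counting. Ki values are means of two determinations.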

For assay [3], the target named is human GABAA α2β2γ1 receptor (Homo sapiens (Human), UniProt P47869+Q8N1C3). The assay can be described thus: Radioligand binding assay, competition for [3H]RO7239181, γ1-containing GABAA subtypes. As to conditions: Ki h-GABAA α2β2γ1, membranes of HEK293F cells, [3H]RO7239181 20-30 nM.
Setting [4] is: HEK293F cells, [3H]Flumazenil 1 nM, Table 1, read-out: Ki h-GABAA α1β3γ2.

In the case of `Cc1nnc2n1-c1sc3c(c1C(c1c(F)cccc1F)=N[C@H]2C)COC[C@H](C)O3` [Example 30, (7S,15S)-9-(2,6-difluorophenyl)-3,7,15-trimethyl-13,16-dioxa-18-thia-2,4,5,8-tetrazatetracyclo[8.8.0.02,6.011,17]octadeca-1(10),3,5,8,11(17)-pentaene], the Ki was determined as 3.28 nM in assay [1], 1830 nM in assay [2], 36.9 nM in assay [3] (Table 1) and 36.9 nM in assay [3] (Table 2). For the same molecule, the “γ2/γ1 Selectivity Ratio” value in assay [2] (Table 1) is 49.6. This molecule also registered a LogSel in assay [2] (Table 1) of 1.70.

Take `Cc1nnc2n1-c1sc3c(c1C(c1c(F)cccc1F)=N[C@H]2C)CCC(F)C(F)C3` (single isomer, unassigned) [Example 34]: the Ki in assay [1] is 20.9 nM; in assay [2], 10800 nM; in assay [3] (Table 1) it was 31.7 nM; in assay [3] (Table 2), 31.7 nM. In addition, in assay [2] (Table 1), the “γ2/γ1 Selectivity Ratio” value came out at 340.3. Besides, in assay [2] (Table 1), the LogSel is reported as 2.53.

Consider `Cc1nc2n(n1)-c1sc3c(c1C(c1c(F)cccc1F)=N[C@H]2C)COC[C@H](C)O3` [Example 39, (7S,15S)-9-(2,6-difluorophenyl)-4,7,15-trimethyl-13,16-dioxa-18-thia-2,3,5,8-tetrazatetracyclo[8.8.0.02,6.011,17]octadeca-1(10),3,5,8,11(17)-pentaene], for which the Ki in assay [1] amounted to 3.47 nM; in assay [2] it was 9120 nM; in assay [3] (Table 1), 57.8 nM; in assay [3] (Table 2) it was 57.8 nM. Also, in assay [2] (Table 1), the “γ2/γ1 Selectivity Ratio” value was 157.6. The same molecule registered a LogSel in assay [2] (Table 1) of 2.20.

Consider `[2H]C1([2H])OCc2c(sc3c2C(c2c(F)cccc2F)=N[C@@H](C)c2nc(C(=O)N4CCC4)nn2-3)OC1([2H])[2H]` [Example 23, azetidin-1-yl-[(7S)-14,14,15,15-tetradeuterio-9-(2,6-difluorophenyl)-7-methyl-13,16-dioxa-18-thia-2,3,5,8-tetrazatetracyclo[8.8.0.02,6.011,17]octadeca-1(10),3,5,8,11(17)-pentaen-4-yl]methanone], for which the Ki was 2.49 nM in assay [1], 8420 nM in assay [2] (setting [4]), 6.3 nM in assay [3] (Table 1) and 6.3 nM in assay [3] (Table 2). In assay [2] (Table 1), the “γ2/γ1 Selectivity Ratio” value is 1329.5. The same molecule gave a LogSel in assay [2] (Table 1) of 3.12.

`C[C@@H]1N=C(c2c(F)cccc2F)c2c(sc3c2COC[C@H](C)O3)-n2nc(C(=O)NCCO)nc21` [Example 53, (7S,15S)-9-(2,6-difluorophenyl)-N-(2-hydroxyethyl)-7,15-dimethyl-13,16-dioxa-18-thia-2,3,5,8-tetrazatetracyclo[8.8.0.02,6.011,17]octadeca-1(10),3,5,8,11(17)-pentaene-4-carboxamide]: the Ki in assay [1] was 6.2 nM; in assay [2] (setting [4]) it was 11400 nM; in assay [3] (Table 1), 95.3 nM; in assay [3] (Table 2), 95.3 nM. For the same molecule, the “γ2/γ1 Selectivity Ratio” value in assay [2] (Table 1) was 119.7. In assay [2] (Table 1), this molecule gave a LogSel of 2.08.

In the case of `Cc1nnc2n1-c1sc3c(c1C(c1c(F)cccc1F)=N[C@H]2C)CCCC(F)(F)C3` [Example 8, (7S)-9-(2,6-difluorophenyl)-15,15-difluoro-3,7-dimethyl-18-thia-2,4,5,8-tetrazatetracyclo[8.8.0.02,6.011,17]octadeca-1(10),3,5,8,11(17)-pentaene], the Ki in assay [1] came to 12.8 nM; in assay [2], 2760 nM; in assay [3] (Table 1) it was 51.3 nM; in assay [3] (Table 2) it was 51.3 nM. Also, in assay [2] (Table 1), the “γ2/γ1 Selectivity Ratio” value came out at 53.8. Also, the LogSel in assay [2] (Table 1) worked out at 1.73.

Consider `C[C@@H]1N=C(c2c(F)cccc2F)c2c(sc3c2COCCO3)-n2nc(C(=O)NC[C@](C)(O)C(F)(F)F)nc21` [Example 47, (7S)-9-(2,6-difluorophenyl)-7-methyl-N-[(2S)-3,3,3-trifluoro-2-hydroxy-2-methyl-propyl]-13,16-dioxa-18-thia-2,3,5,8-tetrazatetracyclo[8.8.0.02,6.011,17]octadeca-1(10),3,5,8,11(17)-pentaene-4-carboxamide], for which the Ki in assay [1] was determined as 4.43 nM; in assay [2] (setting [4]), 3540 nM; in assay [3] (Table 1) it was 20.3 nM; in assay [3] (Table 2), 20.3 nM. Also, in assay [2] (Table 1), the “γ2/γ1 Selectivity Ratio” value is given as 174.6. Further, in assay [2] (Table 1), the LogSel worked out at 2.24.

In the case of `CCc1nnc2n1-c1sc3c(c1C(c1c(F)cccc1F)=N[C@H]2C)COCCO3` [Example 42, (7S)-9-(2,6-difluorophenyl)-3-ethyl-7-methyl-13,16-dioxa-18-thia-2,4,5,8-tetrazatetracyclo[8.8.0.02,6.011,17]octadeca-1(10),3,5,8,11(17)-pentaene], the Ki in assay [1] came to 2.9 nM; in assay [2] it was 4270 nM; in assay [3] (Table 1), 31.7 nM; in assay [3] (Table 2), 31.7 nM. Besides, in assay [2] (Table 1), the “γ2/γ1 Selectivity Ratio” value is on record as 134.9. The LogSel in assay [2] (Table 1) came out at 2.13.

With `Cc1nnc2n1-c1sc3c(c1C(c1c(F)cccc1F)=N[C@H]2C)CCCCC3O` (mixture of isomers) [Example 9, (7S,16RS)-9-(2,6-difluorophenyl)-3,7-dimethyl-18-thia-2,4,5,8-tetrazatetracyclo[8.8.0.02,6.011,17]octadeca-1(10),3,5,8,11(17)-pentaen-16-ol], the Ki in assay [1] is 2.79 nM; in assay [2], 1130 nM; in assay [3] (Table 1) it was 14.3 nM; in assay [3] (Table 2), 14.3 nM. Further, the “γ2/γ1 Selectivity Ratio” value in assay [2] (Table 1) is listed as 79.4. In assay [2] (Table 1), this molecule showed a LogSel of 1.90.

As to `CCc1nc2n(n1)-c1sc3c(c1C(c1c(F)cccc1F)=N[C@H]2C)COC[C@H](C)O3` [Example 49, (7S,15S)-9-(2,6-difluorophenyl)-4-ethyl-7,15-dimethyl-13,16-dioxa-18-thia-2,3,5,8-tetrazatetracyclo[8.8.0.02,6.011,17]octadeca-1(10),3,5,8,11(17)-pentaene], the Ki in assay [1] came to 3.32 nM; in assay [2] it was 8750 nM; in assay [3] (Table 1), 52.5 nM; in assay [3] (Table 2), 52.5 nM. For the same molecule, the “γ2/γ1 Selectivity Ratio” value in assay [2] (Table 1) came to 166.8. In assay [2] (Table 1), this molecule gave a LogSel of 2.22.

As for `Cc1nnc2n1-c1sc3c(c1C(c1c(F)cccc1Cl)=N[C@H]2C)COCCC3` [Example 61, (7S)-9-(2-chloro-6-fluoro-phenyl)-3,7-dimethyl-13-oxa-18-thia-2,4,5,8-tetrazatetracyclo[8.8.0.02,6.011,17]octadeca-1(10),3,5,8,11(17)-pentaene], the Ki in assay [1] came to 4.98 nM; in assay [2], 2520 nM; in assay [3] (Table 1), 20.6 nM; in assay [3] (Table 2), 20.6 nM. Also, in assay [2] (Table 1), the “γ2/γ1 Selectivity Ratio” value is reported as 122.4. In assay [2] (Table 1), this molecule showed a LogSel of 2.09.

As for `Cc1nnc2n1-c1sc3c(c1C(c1c(F)cccc1F)=N[C@H]2C)CCCC(O)C3` (mixture of isomers) [Example 13, (7S,15RS)-9-(2,6-difluorophenyl)-3,7-dimethyl-18-thia-2,4,5,8-tetrazatetracyclo[8.8.0.02,6.011,17]octadeca-1(10),3,5,8,11(17)-pentaen-15-ol], the Ki in assay [1] is 5.67 nM; in assay [2], 1190 nM; in assay [3] (Table 1), 15.1 nM; in assay [3] (Table 2), 15.1 nM. In assay [2] (Table 1), the “γ2/γ1 Selectivity Ratio” value was found to be 78.9. Besides, in assay [2] (Table 1), the LogSel was determined as 1.90.

Regarding `C[C@@H]1N=C(c2c(F)cccc2F)c2c(sc3c2COCCO3)-n2nc(C(=O)N3CC(OC(C)(C)C)C3)nc21` [Example 29, (3-tert-butoxyazetidin-1-yl)-[(7S)-9-(2,6-difluorophenyl)-7-methyl-13,16-dioxa-18-thia-2,3,5,8-tetrazatetracyclo[8.8.0.02,6.011,17]octadeca-1(10),3,5,8,11(17)-pentaen-4-yl]methanone], the Ki in assay [1] was 1.82 nM; in assay [2] (setting [4]), 2830 nM; in assay [3] (Table 1), 7.7 nM; in assay [3] (Table 2), 7.7 nM. Moreover, in assay [2] (Table 1), the “γ2/γ1 Selectivity Ratio” value is recorded as 366.9. Moreover, in assay [2] (Table 1), the LogSel was 2.56.

For `C[C@@H]1N=C(c2c(F)cccc2F)c2c(sc3c2COCCO3)-n2c(C(F)F)nnc21` [Example 48, (7S)-3-(difluoromethyl)-9-(2,6-difluorophenyl)-7-methyl-13,16-dioxa-18-thia-2,4,5,8-tetrazatetracyclo[8.8.0.02,6.011,17]octadeca-1(10),3,5,8,11(17)-pentaene], the Ki in assay [1] is 13.5 nM; in assay [2], greater than 30000 nM; in assay [3] (Table 1) it was 47.9 nM; in assay [3] (Table 2) it was 47.9 nM. In addition, the “γ2/γ1 Selectivity Ratio” value in assay [2] (Table 1) was 626.6. Moreover, the LogSel in assay [2] (Table 1) turned out to be 2.80.

`C[C@@H]1N=C(c2c(F)cccc2F)c2c(sc3c2CCCCC3)-n2c(C3CC3)nnc21` [Example 3, (7S)-3-cyclopropyl-9-(2,6-difluorophenyl)-7-methyl-18-thia-2,4,5,8-tetrazatetracyclo[8.8.0.02,6.011,17]octadeca-1(10),3,5,8,11(17)-pentaene]: the Ki in assay [1] was found to be 3.69 nM; in assay [2], 1360 nM; in assay [3] (Table 1), 26.6 nM; in assay [3] (Table 2), 26.7 nM. Further, in assay [2] (Table 1), the “γ2/γ1 Selectivity Ratio” value came out at 51.0. The same molecule displayed a LogSel in assay [2] (Table 1) of 1.71.

Consider `C[C@@H]1N=C(c2c(F)cccc2F)c2c(sc3c2CCCCC3)-n2c(-c3cccnn3)nnc21` [Example 4, (7S)-9-(2,6-difluorophenyl)-7-methyl-3-pyridazin-3-yl-18-thia-2,4,5,8-tetrazatetracyclo[8.8.0.02,6.011,17]octadeca-1(10),3,5,8,11(17)-pentaene], for which the Ki in assay [1] was determined as 8.65 nM; in assay [2], 4520 nM; in assay [3] (Table 1), 47.8 nM; in assay [3] (Table 2), 47.8 nM. Besides, the “γ2/γ1 Selectivity Ratio” value in assay [2] (Table 1) is listed as 94.6. This molecule returned a LogSel in assay [2] (Table 1) of 1.98.

(Values after patent US20240294543A1, “CYCLOHEPTA-THIENO-DIAZEPINE DERIVATIVES AS GABA A GAMMA1 PAM” (Hoffmann-La Roche Inc., priority 2021, published 2024).)
